# Reference: EP1862466A2, “Arrays with cleavable linkers” (THE SCRIPPS RESEARCH INSTITUTE, priority 2004, dated 2006)
# Tests used:
# [1] = test system: MBr1 anti-Globo H monoclonal antibody (IgM); test: Microarray analysis of Globo H derivatives with MBr1 antibody; type: binding, mouse; conditions: sugars spotted on NHS-coated glass slide; FITC secondary antibody
# Protocol: NHS-coated glass slides were spotted with methanolic solutions of sugars 201-204a with concentrations of 5, 10, 20, 30, 40, 50, 60, 80 and 100 µM from bottom to top with ten duplicates horizontally placed in each grid. This attachment procedure is illustrated in FIG. 12. The slide was washed with PBS buffer for one minute.
# This solution was added below the printed grid of sugars and then spread through the application of a coverslip. Incubation in a glass humidifying chamber was performed with shaking for 1 hour. Following this, the slide was washed 5x with 0.05 % tween20 / PBS buffer, 5x with PBS buffer and 5x with water. Next, 200 µL of a 70 µg/mL solution of FITC-tagged goat anti-mouse antibody (Cal Biochem) was formed and added to the slide as before. […] A fluorescence scan was then performed on the slide. The resulting image was analyzed using the program Imagene to locate and quantify the fluorescence of all the spots within the grid.
# Disulfide linker immobilization (of type 217): The BOC protected derivative of disulfide linker 215 (3.9 mg, 13.5 µmol) was dissolved in 1 mL of dichloromethane and 1 mL trifluoroacetic acid was added. […] These solutions were spotted on a solid surface and analyzed along side 201-204a. […]
# Images such as the one shown in FIG. 13 could then be processed using the program Imagene to encircle and quantify the fluorescence of each spot. […]
# chST6GalNAc-I = chST6GalNAc-I activity on small acceptor molecules (α-D-galacto derivatives); type: biochemical, chicken; conditions: substance used as acceptor
# From the text: The inventors have previously reported the cloning, expression, and characterization of chicken ST6GalNAc-I and its use in preparative synthesis of the O-linked sialoside antigens, STn-, α(2-6)SiaT-, α(2-3)SiaT- and Di-SiaT-antigen. Blixt, O.;Allin, K.;Pereira, L.;Datta, A. and Paulson, J. C., J. Am. Chem. Soc. 2002, 124, 5739-5746. Briefly, the recombinant enzyme was expressed in insect cells and purified by CDP-sepharose affinity chromatography to generate approximately 10 U/L of cell culture. The enzymatic activity was evaluated on a set of small acceptor molecules. […] Table 6. chST6GalNAc-I Activity of α-D-Galacto Derivatives
# [2] = test system: interaction between 2G12 and gp120; test: Solution phase ELISA: oligomannose inhibition of 2G12 binding to gp120; parameters: species or system HIV-1; conditions: oligomannose at 0.5 mM
# Protocol: Enzyme-linked immunosorbent assay. Microtiter plate wells (flat bottom, Costar type 3690; Corning Inc.) were coated with 50 ng/well gp120JR-CSF overnight at 4°C. All subsequent steps were performed at room temperature. The wells were then washed four times with PBS/0.05% (vol/vol) Tween20 (Sigma) using a microplate washer (SkanWash 400, Molecular Devices) prior to blocking for 1 hr with 3% (mass/vol) BSA. IgG 2G12, diluted to 0.5 µg/mL (25 ng/well) with 1% (mass/vol) BSA/0.02% (vol/vol) Tween20/PBS (PBS-BT), was then added for 2 hrs to the antigen-coated wells in the presence of serially-diluted oligomannoses starting at 2mM. Unbound antibody was removed by washing four times, as described above. Bound 2G12 was detected with an alkaline phosphatase-conjugated goat anti-human IgG F(ab')2 antibody (Pierce) diluted 1:1000 in PBS-BT. After 1hr, the wells were washed four times and bound antibody was visualized with p-nitrophenol phosphate substrate (Sigma) and monitored at 405 nm.
# Binding. Man9GlcNAc2 1 and deprotected oligomannoses 2-6 and 7-9 (see FIG. 17) were evaluated for their ability to inhibit the interaction between 2G12 and gp120 in a solution phase enzyme-linked immunosorbent assay (ELISA). […]
# 2G12 antibody = test: Carbohydrate microarray analysis, microtiter-based, Scatchard plot (Kd); type: binding, human; conditions: microtiter plate array
# Protocol: Carbohydrate microarray analysis. Ninety-six well NHS-coated microtiter plates (NoAb Biodiscoveries) were treated with 200 µL of a 1 mM methanolic solution of the amino-functionalized disulfide and alkyne containing linker (scheme V) containing 5 % diisopropylethylamine (DIEA) and incubated overnight at 4°C. The microtiter plate was then washed with 2 x 200 µL methanol and 2 x 200 µL water. Next, 200 µL solutions of azido-functionalized oligomannose derivatives 21-25 at varying concentrations from 0 to 500 µM in 5 % DIEA / methanol were introduced. A sprinkle of copper (I) iodide was added and the contents were allowed to react overnight at 4°C. The next day, the contents were removed and the plates were washed with 2 x 200 µL methanol and 2 x 200 µL water. The plates were then blocked with 0.1 % Tween20 solution in HEPES buffer pH 7.5 at 4 °C for 1 hour and then washed with 3 x 200 µL HEPES buffer. Next, 200 µL of a 1 µg/mL solution of 2G12 antibody in 0.1 % Tween20 / PBS buffer was added to the wells for a 1 hour incubation at 4 °C and then washed with 2 x 200 µL PBS buffer. At this point, 200 µL of FITC-tagged goat anti-human IgG antibody (10 µg/mL in PBS, Cal Biochem) was added for 1 hour at 4 °C, and the wells were then washed with 2 x 200 µL PBS buffer. Detection of the FITC-tagged secondary antibody was performed in 200 µL water using a fluorescence plate reader. The resulting data yielded the oligomannose-2G12 binding isotherms and Scatchard plot analysis was implemented in the determination of dissociation constants. Adams et al. (2004) Chem. Biol. 11: 875-81.
# Overall, many of the oligomannose derivatives can compete for binding of Man9GlcNAc2, and, therefore, may serve as building blocks for potential immunogens to elicit 2G12-like antibodies. Carbohydrate Microarray Analysis. Previous studies by the inventors using covalent microtiter plates with a panel of carbohydrate epitopes for interaction with 2G12 involved converting the amine-containing oligomannoses 4, 5, 7, 8 and 9 to the corresponding azide derivatives 21, 22, 23, 24 and 25. These derivatives were then covalently attached to a microplate-immobilized cleavable linker via the Cu (I)-catalyzed 1,3-dipolar cycloaddition reaction (FIG. 11B). Kd values for the interaction of 2G12 with oligomannoses 4, 5, 7, 8, 9 (Table 9) were determined using a microtiter-based assay with detection via a fluorescent secondary antibody (see Bryan et al.(2004) J. Am. Chem. Soc. 126, 8640-41). Table 9: The Kd values of oligomannoses 1 and 4, 5, 7, 8, 9 binding to 2G12, as determined by carbohydrate microarray analysis.
compound,measurement,setting,value
C[C@@H]1O[C@@H](O[C@H]2[C@H](OCCCCCN)O[C@H](CO)[C@H](O)[C@@H]2O)[C@@H](O)[C@H](O)[C@@H]1O [Compound 201a],binding of MBr1 antibody to immobilized sugar (in words),[1],no recruitment of antibody to the surface
CC(=O)N[C@H]1[C@H](O[C@H]2[C@@H](O)[C@@H](CO)O[C@H](O[C@@H]3[C@H](O)[C@@H](O)[C@H](O[C@H]4[C@H](O)[C@@H](O)[C@H](OCCCCCN)O[C@@H]4CO)O[C@@H]3CO)[C@@H]2O)O[C@H](CO)[C@H](O)[C@@H]1O[C@@H]1O[C@H](CO)[C@H](O)[C@H](O)[C@H]1O[C@@H]1O[C@@H](C)[C@@H](O)[C@@H](O)[C@@H]1O [Compound 204a],binding of MBr1 antibody to immobilized sugar (in words),[1],greatest affinity
CC(=O)N[C@H]1C(O)O[C@H](CO)[C@H](O)[C@@H]1O (stereo partly drawn) [D-GalNAc],"chST6GalNAc-I Activity, cpm",chST6GalNAc-I,0 cpm
same,"chST6GalNAc-I Activity, nmol/mg x min^-1",chST6GalNAc-I,0.00 nmol/mg x min^-1
NCCCCCO[C@H]1O[C@H](CO[C@H]2O[C@H](CO)[C@@H](O)[C@H](O)[C@@H]2O[C@H]2O[C@H](CO)[C@@H](O)[C@H](O)[C@@H]2O)[C@@H](O)[C@H](O[C@H]2O[C@H](CO)[C@@H](O)[C@H](O)[C@@H]2O[C@H]2O[C@H](CO)[C@@H](O)[C@H](O)[C@@H]2O)[C@@H]1O [Oligomannose 5],inhibition (%) of 2G12 binding to gp120,[2],37.7%
same,affinity for 2G12 antibodies (in words),2G12 antibody,greatest affinity
